In brackets after ≈: the same amount, converted by molar mass. Where two headings read alike, the source gives them in different places.
Columns and labels:
Staph. aureus 1517 = assay: MIC by serial dilution in nutrient agar (human bacteria); format: cell-based; conditions: Staphylococcus aureus
M. suipneumoniae Str. 11 = assay: Anti-mycoplasma MIC; format: cell-based; conditions: Mesomycoplasma hyopneumoniae, STR.11
[1] = tested on: M. suipneumoniae J2206/183b; assay: Anti-mycoplasma MIC; format: cell-based; conditions: Mesomycoplasma hyopneumoniae, J2206/183B
M. dispar H225 = assay: Anti-mycoplasma MIC; format: cell-based
M. dispar NCTC 10125 = assay: Anti-mycoplasma MIC; format: cell-based
M. pneumoniae 427a = assay: Anti-mycoplasma MIC; format: cell-based; conditions: Mycoplasmoides pneumoniae
M. pneumoniae ATCC 15492 = assay: Anti-mycoplasma MIC; format: cell-based; conditions: Mycoplasmoides pneumoniae, ATCC15492, M. pneumoniae ATCC 15492
M. bovis ATCC 25025 = assay: microbe, parasite or virus in culture; format: cell-based; conditions: ATCC25025
M. bovis NCTC 10131 = assay: microbe, parasite or virus in culture; format: cell-based; conditions: NCTC10131
M. fermentans MWKL4 = assay: Anti-mycoplasma MIC; format: cell-based; conditions: Mycoplasmopsis fermentans
M. pulmonis JB = assay: Anti-mycoplasma MIC; format: cell-based; conditions: Mycoplasmopsis pulmonis
M. hyorhinis ATCC 23234 = assay: Anti-mycoplasma MIC; format: cell-based; conditions: Mesomycoplasma hyorhinis, ATCC23234
[2] = tested on: M. hyosynoviae ATCC 25591; assay: Anti-mycoplasma MIC; format: cell-based
[3] = tested on: M. arthritidis ATCC 14124; assay: Anti-mycoplasma MIC; format: cell-based
M. gallisepticum S6 = assay: Anti-mycoplasma MIC; format: cell-based; conditions: Mycoplasmoides gallisepticum
M. synoviae ATCC 25204 = assay: Anti-mycoplasma MIC; format: cell-based; conditions: Mycoplasmopsis synoviae, ATCC25204
[4] = tested on: M. alkalescens NCTC 10135; assay: Anti-mycoplasma MIC; format: cell-based
[5] = tested on: M. bovigenitalium ATCC 14173; assay: Anti-mycoplasma MIC; format: cell-based
Past. multocida 1633 = assay: MIC by serial dilution in nutrient agar (human bacteria); conditions: Pasteurella multocida
H. influenzae Q1 = assay: as above; conditions: Haemophilus influenzae
H. influenzae Wy21 = assay: as above; conditions: Haemophilus influenzae
N. catarrhalis 1502 = assay: as above; conditions: Neisseria
B. subtilis = assay: as above; conditions: Bacillus subtilis
Staph. aureus Oxford = assay: as above; conditions: Staphylococcus aureus
Staph. aureus Russell = assay: as above; conditions: Staphylococcus aureus
Strep. pyogenes A 64/848 = assay: as above; conditions: Streptococcus pyogenes, A64/848
Strep. pyogenes B 2788 = assay: as above; conditions: Streptococcus pyogenes, B2788
Strep. pyogenes C 2761 = assay: as above; conditions: Streptococcus pyogenes, C2761
Strep. pneumoniae CN33 = assay: as above; conditions: Streptococcus pneumoniae
Bord. bronchiseptica BO8 = assay: MIC against veterinary bacteria; conditions: Bordetella bronchiseptica
Bord. bronchiseptica BO9 = assay: MIC against veterinary bacteria; conditions: Bordetella bronchiseptica
Past. multocida PA1 = assay: MIC against veterinary bacteria; conditions: Pasteurella multocida
Past. multocida PA2 = assay: MIC against veterinary bacteria; conditions: Pasteurella multocida
Past. haemolytica PA5 = assay: MIC against veterinary bacteria; conditions: Mannheimia haemolytica
[6] = tested on: Staph. aureus B4 (pen resistant); assay: MIC against veterinary bacteria; conditions: Staphylococcus aureus
[7] = tested on: Staph. aureus 152 (pen sensitive); assay: MIC against veterinary bacteria; conditions: Staphylococcus aureus
Strep. uberis SPU1 = assay: MIC against veterinary bacteria; conditions: Streptococcus uberis
Strep. dysgalactiae SPD1 = assay: MIC against veterinary bacteria; conditions: Streptococcus dysgalactiae
Strep. agalactiae SPA1 = assay: MIC against veterinary bacteria; conditions: Streptococcus agalactiae
[8] = Agar (serial dilution in Friis' agar)
[9] = Broth (Friis' broth, microtiter method)
[10] = Agar (serial dilution in Friis' agar), read-out: MIC
[11] = Broth (Friis' broth, microtiter method), read-out: MIC

`COC(=O)/C=C(\C)CC1OCC(C/C=C/C(C)C(C)O)C(O)C1O` (stereo not drawn) [Methyl, Methyl Monate C] gave an MIC (Staph. aureus 1517) of 2.5 µg/mL (≈ 7.3 µM), an MIC (M. suipneumoniae Str. 11) of 2.5 µg/mL (≈ 7.3 µM) and an MIC [1] of 2.5 µg/mL (≈ 7.3 µM). It also gave an MIC (M. dispar H225) of 0.625 µg/mL (≈ 1.83 µM), an MIC (M. dispar NCTC 10125) of 0.312 µg/mL (≈ 0.911 µM) and an MIC (M. pneumoniae 427a; [8]) greater than 10 µg/mL. The MIC (M. pneumoniae 427a; [9]) was greater than 10 µg/mL, the MIC (M. pneumoniae ATCC 15492; [8]) was greater than 10 µg/mL and the MIC (M. pneumoniae ATCC 15492; [9]) was 10 µg/mL (≈ 29.2 µM). For the same molecule, the MIC (M. bovis ATCC 25025) was 0.312 µg/mL (≈ 0.911 µM), the MIC (M. bovis NCTC 10131) was 0.312 µg/mL (≈ 0.911 µM) and the MIC (M. fermentans MWKL4; [8]) was 0.625 µg/mL (≈ 1.83 µM). For the same molecule, the MIC (M. fermentans MWKL4; [9]) was 0.312 µg/mL (≈ 0.911 µM), the MIC (M. pulmonis JB; [8]) was 0.312 µg/mL (≈ 0.911 µM) and the MIC (M. pulmonis JB; [9]) was 0.156 µg/mL (≈ 0.456 µM). It also gave an MIC (M. hyorhinis ATCC 23234) of 1.25 µg/mL (≈ 3.65 µM), an MIC [2] of 5 µg/mL (≈ 14.6 µM) and an MIC [3] greater than 10 µg/mL. For the same molecule, the MIC (M. gallisepticum S6; S6) was greater than 10 µg/mL, the MIC (M. synoviae ATCC 25204) was 0.156 µg/mL (≈ 0.456 µM) and the MIC [4] was 0.156 µg/mL (≈ 0.456 µM). The MIC [5] was 0.156 µg/mL (≈ 0.456 µM), the MIC (Past. multocida 1633) was 10 µg/mL (≈ 29.2 µM) and the MIC (H. influenzae Q1) was 1 µg/mL (≈ 2.92 µM). For the same molecule, the MIC (H. influenzae Wy21) was 2.5 µg/mL (≈ 7.3 µM), the MIC (N. catarrhalis 1502) was 1 µg/mL (≈ 2.92 µM) and the MIC (B. subtilis) was 2.5 µg/mL (≈ 7.3 µM). The MIC (Staph. aureus Oxford) was 1 µg/mL (≈ 2.92 µM), the MIC (Staph. aureus Russell) was 2.5 µg/mL (≈ 7.3 µM) and the MIC (Strep. pyogenes A 64/848) was greater than 100 µg/mL. The MIC (Strep. pyogenes B 2788) was 25 µg/mL (≈ 73 µM), the MIC (Strep. pyogenes C 2761) was greater than 100 µg/mL and the MIC (Strep. pneumoniae CN33) was 25 µg/mL (≈ 73 µM).
For `C/C(=C\C(=O)OCC(C)C)CC1OCC(C/C=C/C(C)C(C)O)C(O)C1O` (stereo not drawn) [Isobutyl, Isobutyl Monate C], the MIC (M. suipneumoniae Str. 11) was 1.25 µg/mL (≈ 3.25 µM), the MIC [1] was 1.25 µg/mL (≈ 3.25 µM) and the MIC (M. dispar H225; M. dispar H225, Broth (Friis' broth, microtiter method), read-out: MIC) was 0.312 µg/mL (≈ 0.811 µM). It also gave an MIC (M. dispar NCTC 10125; M. dispar NCTC 10125, Broth (Friis' broth, microtiter method), read-out: MIC) of 0.312 µg/mL (≈ 0.811 µM), an MIC (M. pneumoniae 427a; [10]) of 10 µg/mL (≈ 26 µM) and an MIC (M. pneumoniae 427a; [11]) of 1.25 µg/mL (≈ 3.25 µM). It also gave an MIC (M. pneumoniae ATCC 15492; [10]) of 10 µg/mL (≈ 26 µM), an MIC (M. pneumoniae ATCC 15492; [11]) of 2.5 µg/mL (≈ 6.5 µM) and an MIC (M. bovis ATCC 25025) of 0.156 µg/mL (≈ 0.406 µM). The MIC (M. bovis NCTC 10131) was 0.156 µg/mL (≈ 0.406 µM), the MIC (M. fermentans MWKL4; [10]) was 0.312 µg/mL (≈ 0.811 µM) and the MIC (M. fermentans MWKL4; [11]) was 0.039 µg/mL (≈ 0.101 µM). It also gave an MIC (M. pulmonis JB; [10]) of 0.078 µg/mL (≈ 0.203 µM), an MIC (M. pulmonis JB; [11]) of less than 0.02 µg/mL and an MIC (M. hyorhinis ATCC 23234; M. hyorhinis ATCC 23234, Agar (serial dilution in Friis' agar), read-out: MIC) of 2.5 µg/mL (≈ 6.5 µM). For the same molecule, the MIC ([2]; M. hyosynoviae ATCC 25591, Agar (serial dilution in Friis' agar), read-out: MIC) was 0.625 µg/mL (≈ 1.63 µM), the MIC ([3]; M. arthritidis ATCC 14124, Agar (serial dilution in Friis' agar), read-out: MIC) was 5 µg/mL (≈ 13 µM) and the MIC (M. gallisepticum S6; M. gallisepticum S6, Agar (serial dilution in Friis' agar), read-out: MIC) was greater than 10 µg/mL. For the same molecule, the MIC (M. synoviae ATCC 25204; M. synoviae ATCC 25204, Agar (serial dilution in Friis' agar), read-out: MIC) was 0.078 µg/mL (≈ 0.203 µM), the MIC [4] was 0.156 µg/mL (≈ 0.406 µM) and the MIC ([5]; M. bovigenitalium ATCC 14173, Agar (serial dilution in Friis' agar), read-out: MIC) was 0.078 µg/mL (≈ 0.203 µM). The MIC (Bord. bronchiseptica BO8) was greater than 80 µg/mL, the MIC (Bord. bronchiseptica BO9) was 40 µg/mL (≈ 104 µM) and the MIC (Past. multocida PA1) was 10 µg/mL (≈ 26 µM). It also gave an MIC (Past. multocida PA2) of 10 µg/mL (≈ 26 µM), an MIC (Past. haemolytica PA5) of 80 µg/mL (≈ 208 µM) and an MIC [6] of 1.25 µg/mL (≈ 3.25 µM). It also gave an MIC [7] of 1.25 µg/mL (≈ 3.25 µM), an MIC (Strep. uberis SPU1) of 1.25 µg/mL (≈ 3.25 µM) and an MIC (Strep. dysgalactiae SPD1) of 5 µg/mL (≈ 13 µM). For the same molecule, the MIC (Strep. agalactiae SPA1) was 10 µg/mL (≈ 26 µM), the MIC (Past. multocida 1633) was 5 µg/mL (≈ 13 µM) and the MIC (H. influenzae Q1) was 1 µg/mL (≈ 2.6 µM). The MIC (H. influenzae Wy21) was 1 µg/mL (≈ 2.6 µM), the MIC (N. catarrhalis 1502) was 1 µg/mL (≈ 2.6 µM) and the MIC (B. subtilis) was 1 µg/mL (≈ 2.6 µM). It also gave an MIC (Staph. aureus Oxford) of 0.5 µg/mL (≈ 1.3 µM), an MIC (Staph. aureus Russell) of 1 µg/mL (≈ 2.6 µM) and an MIC (Strep. pyogenes A 64/848) of 10 µg/mL (≈ 26 µM). The MIC (Strep. pyogenes B 2788) was 25 µg/mL (≈ 65 µM), the MIC (Strep. pyogenes C 2761) was 25 µg/mL (≈ 65 µM) and the MIC (Strep. pneumoniae CN33) was 5 µg/mL (≈ 13 µM).

From US4248887A, “Antibacterial compounds, processes for their preparation and compositions containing them” (priority 1978, dated 1981)
